Assay results taken from EP1247803A2, “Indolinone compounds suitable for modulation of protein kinases” (Sugen, Inc., priority 1996, dated 1998).

What was measured:
[1] = biological target: T1, FLK-1 receptor (Mus musculus, UniProt P35918); experiment: FLK-1 ELISA (kinase activity of the FLK-1 receptor in FLK-1/NIH3T3 cells, VEGF stimulated); type: cell-based
T1 construct: expressed in transfected cells; host or cells: NIH3T3 C7#3
Summary of the method: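 FLK-1-expressing NIH3T3 C7#3 cells, starved overnight in 0.1% FBS medium, were treated with compounds at a 1:200 final dilution (0.5% DMSO) for 2 h at 37 °C, with VEGF stimulation. FLK-1 kinase activity was read by ELISA on anti-rabbit IgG plates using affinity-purified anti-FLK-1 antiserum.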

[2] = tested on: MET; experiment: MET biochemical kinase assay; set-up: species or system human; concentration or dose not given beside the values
Summary of the method: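 Plates coated with anti-rabbit Fc bind a rabbit anti-MET antibody that captures receptor from cell lysates; unbound protein is washed off before compound and ATP-containing kinase buffer go in.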

T1 sequence (P35918 20-1345): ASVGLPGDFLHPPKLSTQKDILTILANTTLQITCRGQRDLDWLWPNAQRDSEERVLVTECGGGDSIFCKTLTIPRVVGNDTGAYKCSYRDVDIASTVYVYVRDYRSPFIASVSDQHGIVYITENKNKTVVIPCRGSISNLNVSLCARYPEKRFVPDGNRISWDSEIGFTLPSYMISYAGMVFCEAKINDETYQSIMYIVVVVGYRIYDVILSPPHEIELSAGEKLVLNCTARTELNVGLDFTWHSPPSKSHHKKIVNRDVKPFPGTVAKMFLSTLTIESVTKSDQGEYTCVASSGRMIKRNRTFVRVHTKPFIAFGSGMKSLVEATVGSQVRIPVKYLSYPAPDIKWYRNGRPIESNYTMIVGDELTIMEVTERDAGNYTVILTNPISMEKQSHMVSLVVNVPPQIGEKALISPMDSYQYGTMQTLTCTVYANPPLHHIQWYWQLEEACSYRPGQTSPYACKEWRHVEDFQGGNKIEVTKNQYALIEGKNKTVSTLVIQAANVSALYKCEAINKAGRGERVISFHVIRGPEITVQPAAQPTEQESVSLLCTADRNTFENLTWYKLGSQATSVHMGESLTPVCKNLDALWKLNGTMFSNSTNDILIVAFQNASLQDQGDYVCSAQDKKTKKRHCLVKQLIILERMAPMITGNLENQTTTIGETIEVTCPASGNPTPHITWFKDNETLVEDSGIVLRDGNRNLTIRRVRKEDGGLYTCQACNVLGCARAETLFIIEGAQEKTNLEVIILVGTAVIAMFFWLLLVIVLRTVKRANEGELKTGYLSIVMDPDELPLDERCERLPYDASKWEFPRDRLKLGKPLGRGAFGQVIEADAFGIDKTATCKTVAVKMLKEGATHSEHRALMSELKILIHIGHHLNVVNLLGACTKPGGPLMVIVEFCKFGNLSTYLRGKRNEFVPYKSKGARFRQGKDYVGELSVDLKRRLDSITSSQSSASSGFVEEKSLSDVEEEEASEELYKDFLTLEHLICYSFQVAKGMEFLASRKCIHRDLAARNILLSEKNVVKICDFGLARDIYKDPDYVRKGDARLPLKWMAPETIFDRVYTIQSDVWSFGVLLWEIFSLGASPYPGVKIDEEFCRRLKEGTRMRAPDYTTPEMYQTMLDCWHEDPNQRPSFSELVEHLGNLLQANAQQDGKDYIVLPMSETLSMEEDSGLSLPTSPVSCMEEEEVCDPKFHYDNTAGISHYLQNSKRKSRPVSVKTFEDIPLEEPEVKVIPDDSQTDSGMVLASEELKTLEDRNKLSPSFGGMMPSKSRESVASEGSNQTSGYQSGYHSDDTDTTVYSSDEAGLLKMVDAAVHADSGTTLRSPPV

| SMILES | Fik Kinase %Inhibition [1] | Met Kinase % Inhibition [2] |
| --- | --- | --- |
| CCOC(=O)c1cc(C=C2C(=O)Nc3c(Br)cc(Br)cc32)oc1C [10718/A06] | 7.8% | 61.3% |
| O=C1Nc2c(Br)cc(Br)cc2C1=Cc1ccc(Cl)c([N+](=O)[O-])c1 [10718/A08] | 3.2% | 36.8% |
| COc1cccc(C=C2C(=O)Nc3ccc(S(=O)(=O)Nc4ccc(C(F)(F)F)cc4)cc32)c1OC [10727/E11] | 37.3% | -5.4% |
| Cc1c(Br)ccc2c1C(=Cc1cccc(C(F)(F)F)c1F)C(=O)N2 [10728/C07] | -7.2% | 46.3% |
| O=C1Nc2ccc(S(=O)(=O)N3CCOCC3)cc2C1=Cc1ccccc1Sc1ccc(Cl)cc1 [10727/F05] | 21.8% | 6.0% |
| N#Cc1cccc(C=C2C(=O)Nc3ccc(CCCl)cc32)c1 [10727/G08] | 15.7% | 21.8% |
| COc1ccc(OC)c(C=C2C(=O)Nc3ccc(Br)c(C)c32)c1 [10728/C02] | -32.1% | 15.5% |
| O=C1Nc2c(Br)cc(Br)cc2C1=Cc1cccc(C(F)(F)F)c1F [10728/A07] | -21.6% | 28.5% |
| COc1cccc(C=C2C(=O)Nc3ccc(CCCl)cc32)c1OC [10727/G11] | 6.9% | -0.8% |
| O=C1Nc2c(Br)cc(Br)cc2C1=Cc1cc(C(F)(F)F)ccc1F [10728/A08] | -1.4% | 40.2% |
| CCc1cc(CC)c(C=C2C(=O)Nc3ccc(CCCl)cc32)[nH]1 [10727/G03] | -3.5% | 40.5% |
| CNS(=O)(=O)c1ccc2c(c1)C(=Cc1ccc(C#N)cc1)C(=O)N2 [10727/D09] | 8.2% | 17.9% |
| CCOC(=O)c1c(C)[nH]c(C=C2C(=O)Nc3c(Br)cc(Br)cc32)c1C [10718/A02] | 3.0% | 54.6% |
| O=C1Nc2ccc(CCCl)cc2C1=Cc1cc(O)ccc1O [10727/G10] | -5.6% | 99.2% |
| CNS(=O)(=O)c1ccc2c(c1)C(=Cc1cccc(OC)c1OC)C(=O)N2 [10727/D11] | 10.5% | 17.3% |
| O=C(O)COc1ccccc1C=C1C(=O)Nc2ccc(I)cc21 [10728/B10] | 3.9% | 79.3% |
| O=C1Nc2ccc(S(=O)(=O)Nc3ccc(C(F)(F)F)cc3)cc2C1=Cc1coc2ccccc2c1=O [10727/E07] | 20.1% | 45.2% |
| N#Cc1cccc(C=C2C(=O)Nc3ccc(S(=O)(=O)N4CCOCC4)cc32)c1 [10727/F08] | 12.5% | 36.9% |
| COc1cccc(OC)c1C=C1C(=O)Nc2c(Br)cc(Br)cc21 [10728/A03] | -7.3% | 29.2% |
| CNS(=O)(=O)c1ccc2c(c1)C(=Cc1cc(Cl)cc(Br)c1O)C(=O)N2 [10727/D04] | 25.9% | 76.0% |

| SMILES | Fik Kinase %Inhibition [1] | Met Kinase % Inhibition [2] |
| --- | --- | --- |
| O=C1Nc2ccc(S(=O)(=O)Nc3ccc(C(F)(F)F)cc3)cc2C1=Cc1cc(O)ccc1O [10727/E10] | 9.7% | 96.6% |
| O=C1Nc2ccc(CCCl)cc2C1=Cc1cc2c(cc1Cl)OCO2 [10727/G06] | 2.9% | 31.1% |
| COc1cc(C=C2C(=O)Nc3ccc(I)cc32)cc(OC)c1 [10728/B04] | -6.0% | 67.2% |
| N#Cc1ccc(C=C2C(=O)Nc3ccc(S(=O)(=O)N4CCOCC4)cc32)cc1 [10727/F09] | -45.2% | 9.3% |
| Cc1c(Br)ccc2c1C(=Cc1ccc3c(c1)Cc1ccccc1-3)C(=O)N2 [10728/C06] | 8.4% | 22.9% |
| COc1cc(C=C2C(=O)Nc3ccc(Br)c(C)c32)cc(OC)c1 [10728/C04] | -0.0% | 33.6% |
| N#Cc1cccc(C=C2C(=O)Nc3ccc(S(=O)(=O)Nc4ccc(C(F)(F)F)cc4)cc32)c1 [10727/E08] | 14.2% | 27.0% |
| O=C1Nc2ccc(I)cc2C1=Cc1c(F)cccc1C(F)(F)F [10728/B09] | 1.7% | 81.7% |
| COc1cccc(C=C2C(=O)Nc3ccc(S(=O)(=O)N4CCOCC4)cc32)c1OC [10727/F11] | 17.3% | -3.0% |
| O=C1Nc2ccc(CCCl)cc2C1=Cc1ccccc1Sc1ccc(Cl)cc1 [10727/G05] | 8.0% | 7.1% |
| CCOC(=O)CCc1c(C(=O)OCC)[nH]c(C=C2C(=O)Nc3c(Br)cc(Br)cc32)c1CC(=O)OCC [10718/A05] | 3.2% | 36.1% |
| Cc1c(Br)ccc2c1C(=Cc1cc(C(F)(F)F)ccc1F)C(=O)N2 [10728/C08] | -2.2% | 25.5% |
| COc1cc(C=C2C(=O)Nc3c(Br)cc(Br)cc32)cc2c1OCO2 [10728/A11] | -2.3% | 58.8% |
| O=C1Nc2c(Br)cc(Br)cc2C1=Cc1ccc2ccccc2c1O [10718/A04] | 6.9% | 81.7% |
| CNS(=O)(=O)c1ccc2c(c1)C(=Cc1ccc3c(c1)Cc1ccccc1-3)C(=O)N2 [10728/D06] | 10.4% | 23.2% |
| CCc1cc(CC)c(C=C2C(=O)Nc3ccc(S(=O)(=O)N4CCOCC4)cc32)[nH]1 [10727/F03] | 8.9% | 22.0% |
| O=C1Nc2ccc(CCCl)cc2C1=Cc1cc(Cl)cc(Br)c1O [10727/G04] | 27.2% | 94.0% |
| CNS(=O)(=O)c1ccc2c(c1)C(=Cc1ccc(N(C)C)cc1OC)C(=O)N2 [10728/D05] | 4.9% | 29.5% |
| CNS(=O)(=O)c1ccc2c(c1)C(=Cc1c(OC)cccc1OC)C(=O)N2 [10728/D03] | 10.2% | 13.5% |
| Cc1c(Br)ccc2c1C(=Cc1c(F)cccc1C(F)(F)F)C(=O)N2 [10728/C09] | 14.5% | 31.6% |

| SMILES | Fik Kinase %Inhibition [1] | Met Kinase % Inhibition [2] |
| --- | --- | --- |
| COc1cc(Br)c(O)c(C=C2C(=O)Nc3c(Br)cc(Br)cc32)c1 [10718/A03] | 7.6% | 92.7% |
| COc1cc(N(C)C)ccc1C=C1C(=O)Nc2ccc(I)cc21 [10728/B05] | -12.3% | 60.4% |
| Cc1c(Br)ccc2c1C(=Cc1ccccc1OCC(=O)O)C(=O)N2 [10728/C10] | 6.1% | 28.7% |
| O=C1Nc2ccc(I)cc2C1=Cc1cc(C(F)(F)F)ccc1F [10728/B08] | 14.8% | 77.0% |
| CCc1cc(CC)c(C=C2C(=O)Nc3ccc(S(=O)(=O)Nc4ccc(C(F)(F)F)cc4)cc32)[nH]1 [10727/E03] | 11.1% | 28.8% |
| COc1ccc(OC)c(C=C2C(=O)Nc3c(Br)cc(Br)cc32)c1 [10728/A02] | -12.3% | 25.6% |
| O=C(O)COc1ccccc1C=C1C(=O)Nc2c(Br)cc(Br)cc21 [10728/A10] | -16.3% | 77.2% |
| CCN(CC)c1ccc(C=C2C(=O)Nc3ccc(CCCl)cc32)cc1 [10727/G02] | 7.1% | 81.5% |
| CNS(=O)(=O)c1ccc2c(c1)C(=Cc1cc(OC)ccc1OC)C(=O)N2 [10728/D02] | -0.3% | 21.4% |
| COc1cc(C=C2C(=O)Nc3ccc(Br)c(C)c32)cc2c1OCO2 [10728/C11] | -10.1% | 45.2% |
| COc1cc(N(C)C)ccc1C=C1C(=O)Nc2ccc(Br)c(C)c21 [10728/C05] | -21.7% | 33.7% |
| COc1ccc(OC)c(C=C2C(=O)Nc3ccc(I)cc32)c1 [10728/B02] | -11.1% | 61.2% |
| O=C1Nc2ccc(S(=O)(=O)Nc3ccc(C(F)(F)F)cc3)cc2C1=Cc1cc(Cl)cc(Br)c1O [10727/E04] | 46.1% | 98.4% |
| Cc1[nH]c(C=C2C(=O)Nc3ccc(CCCl)cc32)c(Br)c1Br [10717/G11] | 16.4% | 73.8% |
| O=C1Nc2c(Br)cc(Br)cc2C1=Cc1c(F)cccc1C(F)(F)F [10728/A09] | -5.5% | 53.1% |
| O=C1Nc2ccc(S(=O)(=O)Nc3ccc(C(F)(F)F)cc3)cc2C1=Cc1ccccc1Sc1ccc(Cl)cc1 [10727/E05] | 17.1% | 12.1% |
| N#Cc1ccc(C=C2C(=O)Nc3ccc(CCCl)cc32)cc1 [10727/G09] | 5.7% | 18.8% |
| CCN(CC)c1ccc(C=C2C(=O)Nc3ccc(S(=O)(=O)N4CCOCC4)cc32)cc1 [10727/F02] | 15.9% | 52.0% |
| O=C1Nc2ccc(I)cc2C1=Cc1cccc(C(F)(F)F)c1F [10728/B07] | 31.4% | 82.2% |
| CNS(=O)(=O)c1ccc2c(c1)C(=Cc1cccc(C#N)c1)C(=O)N2 [10727/D08] | 14.1% | 8.5% |
